{
  "source": "ChEMBL document CHEMBL1129670",
  "about": "“Synthesis and structure-activity relationships of N-propyl-N-(4-pyridinyl)-1H-indol-1-amine (besipirdine) and related analogs as potential therapeutic agents for Alzheimer's disease” (J Med Chem, 1996)",
  "key": {"Mus musculus [1]": {"tested_on": "Mus musculus", "assay": "Antagonistic activity against Scopolamine induced behavioral deficits in mice at dose 0.16 mg/kg sc", "format": "functional", "details": "route subcutaneous"}, "[2]": {"molecular_target": "Muscarinic acetylcholine receptor", "format": "cell membranes, Membrane", "description": "Inhibition of [3H]quinuclidinyl benzilate (QNB) binding from rat forebrain membranes in the presence of Zn"}, "[3]": {"molecular_target": "Muscarinic acetylcholine receptor", "format": "cell membranes, Membrane", "remark": "listed apart in the source", "description": "Inhibition of [3H]quinuclidinyl benzilate (QNB) binding from rat forebrain membranes in the absence of Zn"}, "Mus musculus [4]": {"species_on_record": "Mus musculus", "assay": "Antagonistic activity against Scopolamine induced behavioral deficits in mice; 2/6", "format": "functional"}, "Mus musculus [5]": {"species_on_record": "Mus musculus", "assay": "animal or person", "description": "Effective dose against administration in mice"}, "[6]": {"molecular_target": "Sodium-dependent noradrenaline transporter (Homo sapiens, UniProt P23975)", "sequence (P23975 whole entry)": "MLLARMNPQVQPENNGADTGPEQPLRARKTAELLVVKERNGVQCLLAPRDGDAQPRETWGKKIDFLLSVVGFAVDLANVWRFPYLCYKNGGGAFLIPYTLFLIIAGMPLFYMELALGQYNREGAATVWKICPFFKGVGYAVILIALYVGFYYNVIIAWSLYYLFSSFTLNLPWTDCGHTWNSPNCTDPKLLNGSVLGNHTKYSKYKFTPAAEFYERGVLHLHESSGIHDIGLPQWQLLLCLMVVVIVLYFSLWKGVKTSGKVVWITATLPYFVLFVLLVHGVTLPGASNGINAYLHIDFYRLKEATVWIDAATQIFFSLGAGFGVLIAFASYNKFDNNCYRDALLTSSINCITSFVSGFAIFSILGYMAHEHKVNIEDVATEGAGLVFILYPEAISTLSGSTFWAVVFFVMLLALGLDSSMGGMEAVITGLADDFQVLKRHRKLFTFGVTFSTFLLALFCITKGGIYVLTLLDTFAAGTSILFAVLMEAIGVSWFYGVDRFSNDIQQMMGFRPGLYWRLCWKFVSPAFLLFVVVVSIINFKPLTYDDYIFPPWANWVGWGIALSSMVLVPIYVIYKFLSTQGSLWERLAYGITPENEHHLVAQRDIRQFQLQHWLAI", "description": "Inhibitory activity against norepinephrine (NE) uptake in rat whole brain synaptosome preparation"}, "Mus musculus [7]": {"species_on_record": "Mus musculus", "details": "dose 0.63 mg/kg; route subcutaneous", "description": "Antagonistic activity against Scopolamine induced behavioral deficits in mice at dose 0.63 mg/kg sc"}},
  "data": [
    {"smiles": "CCCN(c1[nH]cnc2ncnc1-2)n1ccc2ccccc21", "values": [
      {"measurement": "Response", "setting": "Mus musculus [1]", "value": 20, "unit": "%"},
      {"measurement": "IC50", "setting": "[2]", "value": 58, "unit": "µM"},
      {"measurement": "IC50", "setting": "[3]", "value": "> 300", "unit": "µM"},
      {"measurement": "Antagonism", "setting": "Mus musculus [4]", "value": 2},
      {"measurement": "ED50", "setting": "Mus musculus [5]", "value": "> 20", "unit": "mg/kg"},
      {"measurement": "IC50", "setting": "[6]", "value": 12, "unit": "µM"},
      {"measurement": "Response", "setting": "Mus musculus [7]", "value": 20, "unit": "%"}
    ]}
  ]
}
